Data set [1] in a line: Selectivity index, ratio of IC50 for NQO1-deficient human L02 cells to IC50 for human A549 cells overexpressing NQO1 incubated for 72 hrs by MTT assay. A general note: Formazan colour is commonly taken as a measure of viable cells.
Data set [2] relates to A549. The data set is described as follows: Cytotoxicity against human A549 cells overexpressing NQO1 assessed as reduction in cell viability incubated for 72 hrs by MTT assay. It counts as functional, cell-based. As to conditions: A549, 72 h.
In a further data set the test system is L02. The data set is described as follows: Cytotoxicity against NQO1-deficient human L02 cells assessed as reduction in cell viability incubated for 72 hrs by MTT assay. It counts as cell-based. The following applies: L02, 72 h.
The target in data set [3] is NAD(P)H dehydrogenase [quinone] 1 (Homo sapiens) (UniProt P15559). The data set is described as follows: Substrate activity at recombinant human NQO1 assessed as enzymatic reduction rate at 10 uM.
Chain of NAD(P)H dehydrogenase [quinone] 1 (Homo sapiens) (P15559 whole entry): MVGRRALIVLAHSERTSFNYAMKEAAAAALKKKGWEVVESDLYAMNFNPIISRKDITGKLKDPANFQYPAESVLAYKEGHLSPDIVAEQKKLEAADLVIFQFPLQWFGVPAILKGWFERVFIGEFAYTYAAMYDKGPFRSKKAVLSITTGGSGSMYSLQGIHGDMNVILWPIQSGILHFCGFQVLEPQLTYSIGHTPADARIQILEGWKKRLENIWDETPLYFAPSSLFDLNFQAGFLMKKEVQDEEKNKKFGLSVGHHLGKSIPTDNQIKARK
Data set [4] concerns A549. The data set is described as follows: Cytotoxicity against NQO1-deficient human A549 cells assessed as reduction in cell viability pretreated with DIC followed by compound addition and incubated for 72 hrs by MTT assay. It counts as functional, cell-based.
A further data set relates to A549/TR. The data set is described as follows: Cytotoxicity against human A549/Taxol cells overexpressing NQO1 assessed as reduction in cell viability incubated for 72 hrs by MTT assay. The class given is functional, cell-based.
Data set [5] concerns A549. The data set is described as follows: Cytotoxicity against human DPP-resistant A549 cells overexpressing NQO1 assessed as reduction in cell viability incubated for 72 hrs by MTT assay. The class given is functional, cell-based. As to conditions: A549, 72 h.
The next data set deals with NCI-H596. In words: Cytotoxicity against NQO1-deficient human NCI-H596 cells assessed as reduction in cell viability incubated for 72 hrs by MTT assay. It counts as functional, cell-based. As to conditions: NCI-H596, 72 h.
Data set [6] in a line: Selectivity index, ratio of IC50 for human A549 cells overexpressing NQO1 to IC50 for NQO1-deficient human A549 cells assessed as reduction in cell viability pretreated with DIC followed by compound addition and measured after 72 hrs by MTT assay.
Data set [7] in a line: Selectivity index, ratio of IC50 for NQO1-deficient human NCI-H596 cells to IC50 for human A549 cells overexpressing NQO1 incubated for 72 hrs by MTT assay.
Data set [8] is described as follows: Lipophilicity, logD of the compound at pH 7.4 by potentiometric titration method. The class given is physicochemical. As to conditions: buffer.
Data set [9] can be described thus: Solubility of the compound in pH 3 after 8 hrs by potentiometric titration method. It counts as physicochemical. As to conditions: buffer.
The nature of data set [10]: Intrinsic solubility of the compound after 8 hrs by potentiometric titration method. It counts as physicochemical. As to conditions: read-out: Intrinsic_solubility.
Data set [11] has as its system A549. In words: Induction of superoxide anion generation in human A549 cells at 10 uM pretreated with DIC or NAC for 1 hr followed by compound addition and measured after 3 hrs by […] staining based confocal laser scanning microscopic method. It counts as functional, cell-based.
The subject of data set [12] is A549. The data set is described as follows: Induction of apoptosis in human A549 cells assessed as condensed nuclei at 1 to 10 uM measured after 24 hrs by DAPI based confocal laser scanning microscopic method. It counts as functional, cell-based. As to conditions: dose 1-10 µM.
Data set [13] has as its system A549. The data set is described as follows: Induction of ROS generation in human A549 cells at 10 uM pretreated with DIC or NAC for 1 hr followed by compound addition and measured after 3 hrs by DCFH-DA staining based confocal laser scanning microscopic method. The class given is functional, cell-based.
The target in data set [14] is NAD(P)H dehydrogenase [quinone] 1 (Homo sapiens) (UniProt P15559). In words: Induction of recombinant human NQO1-mediated ROS generation assessed as rate of reduction of cytochrome C at 25 uM in presence of DIC by spectrophotometric assay.
Data set [15] shares this target. In words: Induction of recombinant human NQO1-mediated ROS generation assessed as rate of reduction of cytochrome C at 25 uM by spectrophotometric assay. As to conditions: filed as activator.
Data set [16] relates to A549. In words: Induction of ROS generation in human A549 cells at 1 to 10 uM incubated for 3 hrs by DCFH-DA staining based confocal laser scanning microscopic method. The class given is functional, cell-based. The following applies: dose 1-10 µM.
Data set [17] concerns A549. The data set is described as follows: Induction of superoxide anion generation in human A549 cells at 1 to 10 uM incubated for 3 hrs by […] staining based confocal laser scanning microscopic method. The class given is functional, cell-based. The following applies: dose 1-10 µM.

Structures are written as SMILES. ≈ marks a conversion by molar mass, not a printed value. Calls of active or inactive are those of the source. No cut-off for these calls is given here.

Broadly, the IC50 is the midpoint of a concentration-inhibition curve. One may read the logD as lipophilicity at a set pH, counting ionised and neutral species.

Regarding `Cc1cc2c(cc1C)-c1oc(CN3CCC(N4CCCCC4)CC3)c(C)c1C(=O)C2=O`, the “Ratio IC50” value in data set [1] is on record as 4.45. The IC50 worked out at 9.1 µM in the data set on A549 [2] and 40.5 µM in the data set on L02. For the same molecule, in data set [3], the Activity turned out to be 795 µmol/min.
For `Cc1cc2c(cc1C)-c1oc(CN3CCC(N4CCN(C)CC4)CC3)c(C)c1C(=O)C2=O`, in that order: 4.38, 6.8 µM, 29.8 µM and 904 µmol/min.
Turning to `Cc1cc2c(cc1C)-c1oc(CN3CCCCC3)c(C)c1C(=O)C2=O`, the “Ratio IC50” value in [1] was 3.79. In addition, the IC50 is 12 µM in the data set on A549 [2] and 45.5 µM with L02. Further, the Activity in data set [3] came out at 768 µmol/min.
On to `CC1(C)CCC2=C(O1)c1ccccc1C(=O)C2=O` [LAPACHONE], for which the IC50 with A549 [4] was found to be 29 µM; in the data set with A549/TR it was 11 µM; in the data set on A549 [5] it was 16 µM; with NCI-H596, 27 µM; in the data set on L02, 9.6 µM. Further, the figures for the “Ratio IC50” value in data set [1], in data set [6] and in [7] were 1.68, 5.1 and 4.7, respectively.
On to `Cc1cc2c(cc1C)-c1oc(CN3CCOCC3)c(C)c1C(=O)C2=O`, for which the “Ratio IC50” value in data set [1] is listed as 5.81. The IC50 in the data set on A549 [2] is 4.9 µM; with L02, 28.5 µM. The Activity in [3] was found to be 996 µmol/min.
Take `Cc1cc2c(cc1C)-c1oc(CN3CCN(CCO)CC3)c(C)c1C(=O)C2=O`: the logD in data set [8] came out at 2.01. Further, in data set [1], the “Ratio IC50” value turned out to be 11.56. Moreover, the solubility at 8 h is above 1000 µg/mL in [9] and 61 µg/mL (≈ 159 µM) in data set [10]. The values for the IC50 in the data set on A549 [2] and in the data set on L02 were 3.1 µM and 35.8 µM, respectively. Moreover, the Activity in data set [3] is 1160 µmol/min.
With `Cc1cc2c(cc1C)-c1occ(C)c1C(=O)C2=O`, in data set [1], the “Ratio IC50” value worked out at 4.24. The IC50 amounted to 7.4 µM with A549 [2] and 31.4 µM in the data set with L02. In data set [3], the Activity is 690 µmol/min.
As to `Cc1cc2c(cc1C)-c1oc(CN3CCN4CCCC4C3)c(C)c1C(=O)C2=O` (stereo not given), in [1], the “Ratio IC50” value came to 7.66. The IC50 with A549 [2] turned out to be 4.3 µM; with L02 it was 32.9 µM. For the same molecule, in data set [3], the Activity stood at 1070 µmol/min.
Regarding `Cc1cc2c(cc1C)-c1oc(CN3CCN(C4CC4)CC3)c(C)c1C(=O)C2=O`, in data set [1], the “Ratio IC50” value is listed as 8.86. The IC50 stood at 3.9 µM in the data set with A549 [2] and 34.6 µM in the data set with L02. Also, the Activity in data set [3] amounted to 1100 µmol/min.
The matching figures for `Cc1cc2c(cc1C)-c1oc(CN3CCN(S(C)(=O)=O)CC3)c(C)c1C(=O)C2=O`: 4.33, 7.2 µM, 31.2 µM and 871 µmol/min.
For `Cc1cc2c(cc1C)-c1oc(CN3CCC(N4CCCC4)CC3)c(C)c1C(=O)C2=O`, in that order: 3.58, 8.7 µM, 31.2 µM and 848 µmol/min.
With `CCN1CCN(Cc2oc3c(c2C)C(=O)C(=O)c2cc(C)c(C)cc2-3)CC1`, in data set [8], the logD was found to be 1.99. Moreover, the “Ratio IC50” value in data set [1] worked out at 12.36. Moreover, the solubility at 8 h in data set [9] is above 1000 µg/mL; in data set [10] it was 82 µg/mL (≈ 224 µM). Moreover, the IC50 in the data set on A549 [2] came to 2.9 µM; in the data set with L02, 35.8 µM. Besides, in [3], the Activity came to 1200 µmol/min.
On to `Cc1cc2c(cc1C)-c1oc(CN(C)C)c(C)c1C(=O)C2=O`, for which the “Ratio IC50” value in [1] is 3.12. Also, the values for the IC50 in the data set on A549 [2] and in the data set with L02 were 15 µM and 46.9 µM, respectively. In data set [3], the Activity is 704 µmol/min.
In the case of `Cc1cc2c(cc1C)-c1oc(CN3CCN(C)CC3)c(C)c1C(=O)C2=O`, the IC50 with A549 [4] came to 30 µM; in the data set with A549/TR it was 4.5 µM; in the data set with A549 [5], 4.8 µM; in the data set with NCI-H596 it was 27 µM; in the data set with A549 [2], 2.4 µM; in the data set with L02, 36.2 µM. Moreover, the logD in [8] amounted to 1.97. For the same molecule, the result (with A549 [11]; in the data set on A549 [13]; in data set [14]) was inactive. Further, the outcome (with A549 [12]; in data set [15]; in the data set on A549 [16]; in the data set on A549 [17]) was Active. Besides, the figures for the “Ratio IC50” value in data set [1], in data set [6] and in [7] were 15.06, above 12.5 and 11, respectively. In addition, the solubility at 8 h is above 1000 µg/mL in data set [9] and 110 µg/mL (≈ 312 µM) in [10]. The Activity in [3] was 1260 µmol/min.
For the molecule `Cc1cc2c(cc1C)-c1oc(CN3CCC(N4CCOCC4)CC3)c(C)c1C(=O)C2=O`, the “Ratio IC50” value in [1] was found to be 5.16. In addition, the figures for the IC50 in the data set with A549 [2] and with L02 were 5.6 µM and 28.9 µM, respectively. For the same molecule, the Activity in data set [3] was 951 µmol/min.
Turning to `Cc1cc2c(cc1C)-c1oc(CN3CCN4CCCCC4C3)c(C)c1C(=O)C2=O` (stereo not given), in data set [1], the “Ratio IC50” value is given as 7.02. The IC50 in the data set with A549 [2] was found to be 4.5 µM; in the data set with L02 it was 31.6 µM. Also, in data set [3], the Activity worked out at 1030 µmol/min.
